Experimental data as given in patent US20260001928A1 (CORTERIA PHARMACEUTICALS, priority 2022, published 2026).
*1 amine or outer side, *2 acyl side, *3 side chain or, on linkers, in order; H or OH if unused. Where a SMILES comes first, the peptide text is derived from it. Side-chain parts run from the residue outwards. [ ]: non-standard residue; d: D form. The star is where a group is joined. C18 diacid = O=C(O)CCCCCCCCCCCCCCCCC(=O)*; γGlu = O=C(O)[C@H](CCC(=O)[*:2])N[*:1]; Nva = CCC[C@H](N)C(=O)O; AEEA = NCCOCCOCC(=O)O; Aib = CC(C)(N)C(=O)O

Legend:
CFR1R receptor = target: T1, CFR1R receptor (Homo sapiens, UniProt P34998); test: Activity at anti-target CFR1R receptor, cAMP assay in CRF1R-overexpression CHO-K1 cells; assay type: cell-based; conditions: 100% = Sauvagine at 100 nM; for EC50: cAMP
T1 construct: host or cells: CHO-K1 (clone 2)
T1 sequence (P34998 24-415): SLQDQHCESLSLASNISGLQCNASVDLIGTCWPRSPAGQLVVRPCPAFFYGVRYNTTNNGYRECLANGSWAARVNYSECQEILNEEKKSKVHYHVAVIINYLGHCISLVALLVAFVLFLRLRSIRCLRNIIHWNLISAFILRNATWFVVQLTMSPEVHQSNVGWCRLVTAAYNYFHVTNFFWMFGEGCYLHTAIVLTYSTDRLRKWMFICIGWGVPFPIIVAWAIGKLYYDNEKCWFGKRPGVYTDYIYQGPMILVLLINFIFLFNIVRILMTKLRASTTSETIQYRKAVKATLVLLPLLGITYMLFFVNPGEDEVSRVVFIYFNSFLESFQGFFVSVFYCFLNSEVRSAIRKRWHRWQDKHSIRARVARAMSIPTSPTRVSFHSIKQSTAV
Summary of the method: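 Signal is normalised to 100 nM Sauvagine, taken as 100% activation, in clone 2 cells plated at a final 4000 cells/well from frozen stocks.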

human CRF2a receptor = target: T2, human CRF2a receptor (Homo sapiens, UniProt Q13324); test: Activity at human CRF2a receptor, cAMP functional assay in TeloHEAC cells; assay type: cell-based; conditions: TeloHEAC cells stably expressing human CRF2a receptor, relative to urocortin 2 (100 nM = 100%)
T2 construct: expressed in transfected cells; host or cells: TeloHEAC cells
T2 sequence (Q13324 1-411): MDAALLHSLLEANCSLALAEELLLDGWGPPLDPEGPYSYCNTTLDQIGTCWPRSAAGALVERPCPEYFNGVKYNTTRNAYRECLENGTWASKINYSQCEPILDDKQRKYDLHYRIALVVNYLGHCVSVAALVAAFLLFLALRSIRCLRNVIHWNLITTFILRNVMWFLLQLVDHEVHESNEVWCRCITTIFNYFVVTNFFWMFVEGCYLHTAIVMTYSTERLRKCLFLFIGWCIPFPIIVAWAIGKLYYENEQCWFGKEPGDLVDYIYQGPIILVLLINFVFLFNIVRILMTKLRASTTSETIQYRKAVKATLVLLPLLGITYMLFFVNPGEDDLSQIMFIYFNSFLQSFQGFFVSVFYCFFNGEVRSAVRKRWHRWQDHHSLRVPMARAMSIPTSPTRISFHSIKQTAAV
Summary of the method: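 cAMP accumulation was measured by HTRF 665/620 nm ratio after 30 min at 37° C compound exposure (16 twofold dilutions) of CRF2a-expressing TeloHEAC cells, 10000/well, in HEPES-buffered HBSS plus IBMX. Activity was normalised to urocortin 2 at 100 nM (100%), and EC50 was the concentration giving half-maximal activation.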

Emax (% I) (CFR1R receptor)	EC50 (CFR1R receptor) [nM]	EC50 (human CRF2a receptor) [nM]	Structure (SMILES)
0	> 250	6.07	CC[C@H](C)[C@H](NC(=O)[C@H](CCC(N)=O)NC(=O)C(C)(C)NC(=O)[C@H](CC(N)=O)NC(=O)[C@@H](NC(=O)[C@H](CCC(=O)O)NC(=O)[C@H](C)NC(=O)[C@H](CCC(N)=O)NC(=O)[C@H](CCC(=O)O)NC(=O)[C@H](CCCNC(=N)N)NC(=O)[C@H](CCC(N)=O)NC(=O)[C@H](CCCCN)NC(=O)[C@H](CCCCN)NC(=O)[C@H](CCC(N)=O)NC(=O)[C@H](CCCCN)NC(=O)[C@H](CCC(=O)O)NC(=O)[C@H](CCC(N)=O)NC(=O)[C@H](CCC(=O)O)NC(=O)[C@H](CC(C)C)NC(=O)[C@H](CC(C)C)NC(=O)[C@@H](NC(=O)[C@H](CCCCN)NC(=O)[C@H](CCCCNC(=O)COCCOCCNC(=O)COCCOCCNC(=O)CC[C@H](NC(=O)CCCCCCCCCCCCCCCCC(=O)O)C(=O)O)NC(=O)[C@H](CC(C)C)NC(=O)[C@H](CCCCN)NC(=O)[C@@H](NC(=O)[C@@H]1CCCN1C(=O)[C@H](NC(=O)[C@H](CC(=O)O)NC(=O)[C@H](CC(C)C)NC(=O)[C@H](CO)NC(=O)[C@H](CC(C)C)NC(=O)[C@@H](NC(C)=O)C(C)C)C(C)C)[C@@H](C)CC)[C@@H](C)CC)[C@@H](C)O)C(=O)N[C@@H](CC(C)C)C(=O)N[C@@H](C)C(=O)N[C@@H](CCC(N)=O)C(=O)N[C@H](C(N)=O)C(C)C [compound 99] (Ac-VLSLD[dV]PIKLK([AEEA-AEEA-γGlu-C18 diacid])KILLEQEKQKKQREQAETN[Aib]QILAQV-NH2)
0	> 250	1.74	CC[C@H](C)[C@H](NC(=O)[C@H](CCC(N)=O)NC(=O)[C@H](C)NC(=O)[C@H](CC(N)=O)NC(=O)[C@@H](NC(=O)[C@H](CCC(=O)O)NC(=O)[C@H](C)NC(=O)[C@H](CCC(N)=O)NC(=O)[C@H](CCC(=O)O)NC(=O)[C@H](CCCNC(=N)N)NC(=O)[C@H](CCC(N)=O)NC(=O)[C@H](CCCCN)NC(=O)[C@H](CCCCN)NC(=O)[C@H](CCC(N)=O)NC(=O)[C@H](CCCCN)NC(=O)[C@H](CCC(=O)O)NC(=O)[C@H](CCC(N)=O)NC(=O)[C@H](CCC(=O)O)NC(=O)[C@H](CC(C)C)NC(=O)[C@H](CC(C)C)NC(=O)[C@@H](NC(=O)[C@H](CCCCN)NC(=O)[C@H](CCCCNC(=O)COCCOCCNC(=O)COCCOCCNC(=O)CC[C@H](NC(=O)CCCCCCCCCCCCCCCCC(=O)O)C(=O)O)NC(=O)[C@H](CC(C)C)NC(=O)[C@H](CCCCN)NC(=O)[C@@H](NC(=O)[C@@H]1CCCN1C(=O)[C@H](NC(=O)[C@H](CC(=O)O)NC(=O)[C@H](CC(C)C)NC(=O)[C@H](CO)NC(=O)[C@H](CC(C)C)NC(=O)[C@@H](NC(C)=O)C(C)C)C(C)C)[C@@H](C)CC)[C@@H](C)CC)[C@@H](C)O)C(=O)N[C@@H](CC(C)C)C(=O)N[C@@H](C)C(=O)N[C@@H](CCC(N)=O)C(=O)N[C@H](C(N)=O)C(C)C [compound 101] (Ac-VLSLD[dV]PIKLK([AEEA-AEEA-γGlu-C18 diacid])KILLEQEKQKKQREQAETNAQILAQV-NH2)
−5	> 250	17.6	CC[C@H](C)[C@H](NC(C)=O)C(=O)N[C@H](C(=O)N[C@@H](CC(C)C)C(=O)N[C@@H](CO)C(=O)N[C@@H](CC(C)C)C(=O)N[C@@H](CC(=O)O)C(=O)N[C@H](C(=O)N1CCC[C@H]1C(=O)N[C@H](C(=O)N[C@@H](CCCCN)C(=O)N[C@@H](CC(C)C)C(=O)N[C@@H](CCCCNC(=O)COCCOCCNC(=O)COCCOCCNC(=O)CC[C@H](NC(=O)CCCCCCCCCCCCCCCCC(=O)O)C(=O)O)C(=O)N[C@@H](CCCCN)C(=O)N[C@H](C(=O)N[C@@H](CC(C)C)C(=O)N[C@@H](CC(C)C)C(=O)N[C@@H](CCC(=O)O)C(=O)N[C@@H](CCC(N)=O)C(=O)N[C@@H](CCC(=O)O)C(=O)N[C@@H](CCCCN)C(=O)N[C@@H](CCC(N)=O)C(=O)N[C@@H](CCCCN)C(=O)N[C@@H](CCCCN)C(=O)N[C@@H](CCC(N)=O)C(=O)N[C@@H](CCCNC(=N)N)C(=O)N[C@@H](CCC(=O)O)C(=O)N[C@@H](CCC(N)=O)C(=O)N[C@@H](C)C(=O)N[C@@H](CCC(=O)O)C(=O)N[C@H](C(=O)N[C@@H](CC(N)=O)C(=O)N[C@H](C(=O)N[C@@H](CCC(N)=O)C(=O)N[C@H](C(=O)N[C@@H](CC(C)C)C(=O)N[C@@H](C)C(=O)N[C@@H](CCC(N)=O)C(=O)N[C@H](C(N)=O)C(C)C)[C@@H](C)CC)C(C)C)[C@@H](C)O)[C@@H](C)CC)[C@@H](C)CC)C(C)C)C(C)C [compound 102] (Ac-IVLSLDVPIKLK([AEEA-AEEA-γGlu-C18 diacid])KILLEQEKQKKQREQAETNVQILAQV-NH2)
3	> 250	3.09	CC[C@H](C)[C@H](NC(C)=O)C(=O)N[C@H](C(=O)N[C@@H](CC(C)C)C(=O)N[C@@H](CO)C(=O)N[C@@H](CC(C)C)C(=O)N[C@@H](CC(=O)O)C(=O)N[C@@H](C(=O)N1CCC[C@H]1C(=O)N[C@H](C(=O)N[C@@H](CCCCN)C(=O)N[C@@H](CC(C)C)C(=O)N[C@@H](CCCCNC(=O)COCCOCCNC(=O)COCCOCCNC(=O)CC[C@H](NC(=O)CCCCCCCCCCCCCCCCC(=O)O)C(=O)O)C(=O)N[C@@H](CCCCN)C(=O)N[C@H](C(=O)N[C@@H](CC(C)C)C(=O)N[C@@H](CC(C)C)C(=O)N[C@@H](CCC(=O)O)C(=O)N[C@@H](CCC(N)=O)C(=O)N[C@@H](CCC(=O)O)C(=O)N[C@@H](CCCCN)C(=O)N[C@@H](CCC(N)=O)C(=O)N[C@@H](CCCCN)C(=O)N[C@@H](CCCCN)C(=O)N[C@@H](CCC(N)=O)C(=O)N[C@@H](CCCNC(=N)N)C(=O)N[C@@H](CCC(=O)O)C(=O)N[C@@H](CCC(N)=O)C(=O)N[C@@H](C)C(=O)N[C@@H](CCC(=O)O)C(=O)N[C@H](C(=O)N[C@@H](CC(N)=O)C(=O)N[C@H](C(=O)N[C@@H](CCC(N)=O)C(=O)N[C@H](C(=O)N[C@@H](CC(C)C)C(=O)N[C@@H](C)C(=O)N[C@@H](CCC(N)=O)C(=O)N[C@H](C(N)=O)C(C)C)[C@@H](C)CC)C(C)C)[C@@H](C)O)[C@@H](C)CC)[C@@H](C)CC)C(C)C)C(C)C [compound 103] (Ac-IVLSLD[dV]PIKLK([AEEA-AEEA-γGlu-C18 diacid])KILLEQEKQKKQREQAETNVQILAQV-NH2)
10	> 250	0.87	CCC[C@H](NC(=O)[C@H](CC(N)=O)NC(=O)[C@@H](NC(=O)[C@H](CCC(=O)O)NC(=O)[C@H](C)NC(=O)[C@H](CCC(N)=O)NC(=O)[C@H](CCC(=O)O)NC(=O)[C@H](CCCNC(=N)N)NC(=O)[C@H](CCC(N)=O)NC(=O)[C@H](CCCCN)NC(=O)[C@H](CCCCN)NC(=O)[C@H](CCC(N)=O)NC(=O)[C@H](CCCCN)NC(=O)[C@H](CCC(=O)O)NC(=O)[C@H](CCC(N)=O)NC(=O)[C@H](CCC(=O)O)NC(=O)[C@H](CC(C)C)NC(=O)[C@H](CC(C)C)NC(=O)[C@@H](NC(=O)[C@H](CCCCN)NC(=O)[C@H](CCCCNC(=O)COCCOCCNC(=O)COCCOCCNC(=O)CC[C@H](NC(=O)CCCCCCCCCCCCCCCCC(=O)O)C(=O)O)NC(=O)[C@H](CC(C)C)NC(=O)[C@H](CCCCN)NC(=O)[C@@H](NC(=O)[C@@H]1CCCN1C(=O)[C@H](NC(=O)[C@H](CC(=O)O)NC(=O)[C@H](CC(C)C)NC(=O)[C@H](CO)NC(=O)[C@H](CC(C)C)NC(=O)[C@@H](NC(=O)[C@@H](NC(C)=O)[C@@H](C)CC)C(C)C)C(C)C)[C@@H](C)CC)[C@@H](C)CC)[C@@H](C)O)C(=O)N[C@@H](CCC(N)=O)C(=O)N[C@H](C(=O)N[C@@H](CC(C)C)C(=O)N[C@@H](C)C(=O)N[C@@H](CCC(N)=O)C(=O)N[C@H](C(N)=O)C(C)C)[C@@H](C)CC [compound 105] (Ac-IVLSLD[dV]PIKLK([AEEA-AEEA-γGlu-C18 diacid])KILLEQEKQKKQREQAETN[Nva]QILAQV-NH2)
